Reference: the SangsterLogP compilation

Experiment: method code SF-AS, from DOI: 10.1002/(sici)1521-3897(199907)341:5<499::aid-prac499>3.0.co;2-7
Conditions: pH 7.4

Row | Compound | logD
1 | Nc1nnnn1-c1ccc(Cl)c(Cl)c1 | 2.06
2 | Nc1nnnn1-c1ccc(F)cc1 | 0.75
3 | Nc1nnnn1-c1cc(Cl)c(Cl)cc1Cl | 2.3
4 | Nc1nnnn1-c1ccccc1 | 0.69
5 | Nc1nnnn1-c1ccc(Br)cc1 | 1.64
6 | Nc1nnnn1-c1ccc([N+](=O)[O-])cc1 | 0.77
7 | Cc1cccc(-n2nnnc2N)c1 | 1.24
8 | Nc1nnnn1-c1ccc(O)cc1 | 0.33
9 | Cc1ccc(C)c(-n2nnnc2N)c1 | 1.46
10 | Cc1ccc(-n2nnnc2N)cc1Cl | 1.89

Results, then the compound that gave them:

Row | logD | Compound
11 | 0.93 | Cc1ccccc1-n1nnnc1N
12 | 1.72 | Nc1nnnn1-c1cccc2ccccc12
13 | 1.63 | Nc1nnnn1-c1ccc(Cl)cc1Cl
14 | 2.08 | Nc1nnnn1-c1ccc2ccccc2c1
15 | 0.56 | Nc1nnnn1-c1cccc(O)c1
16 | 0.56 | COc1ccccc1-n1nnnc1N
17 | 1.61 | Nc1nnnn1-c1cc(Cl)ccc1Cl
18 | 0.67 | Nc1nnnn1-c1cccc([N+](=O)[O-])c1
19 | 0.87 | Nc1nnnn1-c1ccccc1Cl
20 | 1.44 | Nc1nnnn1-c1cccc(Cl)c1
21 | 1.56 | Nc1nnnn1-c1c(Cl)cccc1Cl
22 | 1.32 | CCOc1ccc(-n2nnnc2N)cc1
23 | 1.41 | Nc1nnnn1-c1ccc(Cl)cc1
24 | 0.85 | COc1ccc(-n2nnnc2N)cc1
